PMC8773171, “Development of Small-Molecule STING Activators for Cancer Immunotherapy” (Biomedicines, 2021)

Biological target: T1, STING (Homo sapiens, UniProt Q86WV6)
T1 construct: gene STING1; human STING WT protein 6His-tagged (recombinant)
Assay: HTRF ligand-competitive binding assay with recombinant human STING; supported by CETSA in THP-1 cells

T1 sequence (Q86WV6 whole entry): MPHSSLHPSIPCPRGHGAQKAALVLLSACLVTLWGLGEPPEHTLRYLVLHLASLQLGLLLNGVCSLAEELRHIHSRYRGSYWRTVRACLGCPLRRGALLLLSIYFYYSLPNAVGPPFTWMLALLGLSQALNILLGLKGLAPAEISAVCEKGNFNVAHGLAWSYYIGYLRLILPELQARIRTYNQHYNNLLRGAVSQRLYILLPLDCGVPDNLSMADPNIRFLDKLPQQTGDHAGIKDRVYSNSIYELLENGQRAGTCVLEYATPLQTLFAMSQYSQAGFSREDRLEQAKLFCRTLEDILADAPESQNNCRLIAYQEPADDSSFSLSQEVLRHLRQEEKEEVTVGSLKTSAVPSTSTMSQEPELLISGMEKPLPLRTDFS

Q: With `Nc1ccc(C(=O)N2CCc3cc(S(=O)(=O)N4C[C@H](c5ccccc5)NC4=O)ccc32)cc1` [DW2282] as the compound, how does the “STING competitive binding potency” value read?
A: > 10 µM
